Legend:
[1] = tested on: patients with CRPS-Type 1 (RSD) neuropathic pain; assay: Prolonged continuous intravenous ketamine infusion with clonidine and MgSO4 in U.S. patients with CRPS-Type 1 (RSD); type: in vivo, human
Protocol: Roughly 2 hours before ketamine infusion begins, the patient should be given an oral dose of a “safener drug” that can reduce or eliminate the risks of any neurotoxic side effects that might otherwise be caused by continuous prolonged administration of the ketamine. […] As an additional benefit, clonidine (and various other alpha-2 adrenergic agonist drugs) can also help reduce blood pressure. This is useful, when used in conjunction with ketamine, since elevated blood pressure can be a side effect of ketamine, due to certain activities involving the sympathetic nervous system and the release of catecholamines.
In the treatments disclosed herein, clonidine tablets containing 0.1 or 0.2 mg were administered orally, every 8 to 12 hours, with good results. […] The transdermal form of clonidine (i.e., using skin patches) has also been used, with good results.
Beginning roughly 2 hours before the ketamine infusion is commenced (this can be done conveniently at the same time when the first clonidine tablet is taken), the patient should also be administered magnesium, preferably by intravenous infusion of a water-soluble salt, such as magnesium sulfate or chloride. This can be done by dissolving 2 grams of MgSO4 in 250 milliliters of 5% dextrose in water (abbreviated as D5W) and infusing the liquid into the patient over a period of about 2 hours.
A second infusion of 2 grams of MgSO4 should be administered roughly 24 hours later. This can be repeated each day, if desired, if the patient has not yet achieved complete cessation of the chronic pain; however, in the treatments completed to date, it has never been provided more than 3 times.
As soon as the initial magnesium infusion (which takes about 2 hours) has been completed, the patient is ready for the ketamine infusion to begin. In the treatments described herein, since these were done without being able to rapidly determine ketamine concentrations in blood, each patient was individually “titered”, by testing a series of gradually increasing dosages until a “maximum tolerated dosage” was reached and determined.
This typically was done by starting each patient at an initial dosage of 10 mg per hour, and then evaluating the patient every 2 hours after that, to see whether the dosage should be increased by another 5 or 10 mg/hr. When a patient began showing or reporting substantial CNS effects (such as feeling drunk, slurring of speech, semi-hallucinatory thoughts or visions, etc.), it was presumed that the maximum tolerated dosage had been reached or slightly passed, and the dosage was decreased slightly (such as by 5 or 10 mg/hr, depending on how well the reported pain levels were decreasing).
Four other patients who had suffering from CRPS type 1 for at least two years were subsequently treated in the U.S. Because of patient privacy concerns, the details of their condition cannot be disclosed herein. Typical treatments for these patients commenced with 2 grams of MgSO4 (infused in 5% dextrose in water, or D5W) and 1 or 2 tablets of 0.1 mg clonidine, two or three times per day as tolerated, commencing at least an hour prior to the first ketamine infusion. Throughout the treatment, patients continued to receive 1 or 2 tablets of clonidine 2 to 3 times per day, as tolerated, and a second magnesium infusion was performed in some patients at 24 hr.

[2] = tested on: patients with chronic neuropathic pain; assay: Prolonged infusions of ketamine without any safener drug or magnesium, patients treated in Australia; type: in vivo, human
From the text: About 30 patients have been treated during the span of 1997 through 2002, in Australia, by one of the Inventors herein (Correll), using prolonged infusions of ketamine without any safener drug or magnesium. […] Those patients have been described in more detail in Correll et al 2004, and more current information on the duration of remission are provided in FIGS. 1 and 2 of that report. That report is not prior art against this invention.

[3] = tested on: patients with post-herpetic neuralgia (shingles); assay: Ketamine treatment of patients with post-herpetic neuralgia (shingles); type: in vivo, human
Protocol: Several patients were also treated who suffered from post-herpetic neuralgia (commonly known as shingles).

[4] = Ketamine and norketamine concentrations in blood plasma during infusion; type: in vivo, human
Protocol: Blood samples were taken from each patient during his or her infusion regimen, and those samples were shipped to an analytical laboratory (National Medical Services Company, in Willow Grove, Pa.) to have their ketamine concentrations analyzed. […] In view of those data, it is believed that blood plasma concentrations of at least about 200 ng/ml (and preferably at least about 250 to about 350 ng/ml) should be regarded as target levels for effective treatments.

[5] = tested on: patients with post-herpetic neuralgia; settings: cited from earlier work; for patients in whom side effects were observed: single intravenous injection, of 8 patients (ketamine 0.15 mg/kg, morphine 0.075 mg/kg), Eide et al 1994
NMDA receptors = settings: cited from earlier work

Row | SMILES | reported pain level ([1]; FIG. 1 patient, baseline 8, after 24 hours of ketamine infusion (plateau)) | duration of apparently complete relief ([1]; FIG. 1 patient, one of four further CRPS type 1 patients) | reported pain level ([1]; FIG. 1 patient, within about 3 hours after second MgSO4 infusion commencing at 24 hours, ketamine continued) | duration of apparently complete remission ([1]; first patient treated in the U.S.) | pain relief outcome ([1]; one of four further CRPS type 1 patients, appears permanent as of filing date) | level to which pain returned, relative to pretreatment level ([1]; one of two patients with low ketamine plasma concentrations) | level to which pain returned ([1]; other of two patients with low ketamine plasma concentrations) | overall result ([2]; ketamine alone, about 30 patients) | patients believed to remain generally pain-free or in partial remission ([2]; of about 30 patients treated 1997 through 2002, ketamine alone) | outcome in certain other patients [3] | outcome in one patient [3] | blood plasma concentration of ketamine in the two patients without complete and long-lasting relief ([4]; did not reach or even closely approach this level) [ng/mL] | blood plasma concentration of ketamine that appeared to provide the best results ([4]; plasma, during infusion) | patients in whom side effects were observed [5] [patients] | tolerability ([5]; subcutaneous administration over a continuous span of 7 days, 5 patients, Eide et al 1995) | level of norketamine in blood ([4]; one patient with return of pain) | effectiveness relative to ketamine in reducing pain signals (NMDA receptors) | effectiveness relative to ketamine in suppressing activity at NMDA receptors (NMDA receptors)
1 | CNC1(c2ccccc2Cl)CCCCC1=O (racemic) [ketamine] | about 1.3 | roughly six | zero | about 18 months | apparently complete relief | roughly 50% | roughly the same starting level that existed prior to treatment | generally good results | more than 25 patients | transitory and partial benefits | essentially complete remission | < 300 | greater than 250 ng/ml | 8 | associated with intolerable side effects |  |  | 
2 | NC1(c2ccccc2Cl)CCCCC1=O (stereo not shown) [norketamine] |  |  |  |  |  |  |  |  |  |  |  |  |  |  |  | high level | about 25% | about 25%
3 | CN1CC[C@]23c4c5ccc(O)c4O[C@H]2[C@@H](O)C=C[C@H]3[C@H]1C5 [morphine] |  |  |  |  |  |  |  |  |  |  |  |  |  | 6 |  |  |  | 
